Data published in patent US20240034753A1, “THERAPEUTIC PEPTIDES” (COHBAR, INC., priority 2020, published 2024).
Square brackets hold non-standard residues; d marks the D form. Ends that are not written are not given here. Peptide text beside a SMILES is read from it. Nle = CCCC[C@H](N)C(=O)O

Tests used:
[1] = test system: A172 human brain glioblastoma cell line; assay: Caspase-Glo 3/7 assay of caspase 3/7 activity in cultured cells; format: cell-based; conditions: peptide 10 μM, 18-20 hours, relative to 0.1% DMSO control
Description: The effect of the peptides on cell death/survival can be assessed using a […] assay in cultured cells. Peptides were dissolved at 10 mM in DMSO as stock solutions for use at a final concentration of 10 μM. […] Caspase-Glo 3/7 Assay Reagent was purchased from Promega (Madison, WI). A172 human brain glioblastoma cell line was purchased from American Type Culture Collection (Manassas, VA). A172 cells were grown in DMEM supplemented with 10% FBS with 100 IU/ml penicillin and 100 μg/ml streptomycin. Cultures were maintained at 37° C. in a humidified atmosphere of 5% CO2/95% air. A172 cells were seeded at 8,000 cells per well on 96-well plates. […] Caspase 3/7 activity was determined using a Caspase-Glo 3/7 Assay kit (Promega) according to the manufacturer's instructions. Luminescence for each sample well on the plate was measured using a Cytation 3 plate reader (BioTek, Winooski, VT). Activity was calculated relative to 0.1% DMSO control.

[2] = test system: SH-SY5Y Neuroblastoma Cells; assay: ATP levels (CellTiter-Glo); format: cell-based, human; conditions: peptide 10 μM, 18-20 hours, relative to 0.1% DMSO treated control
Description: The effect of the peptides on cellular metabolism can be assessed using an assay of ATP levels in cultured cells such as human neuroblastoma cells. Peptides were initially prepared as 10 mM stock in DMSO and used at a final concentration of 10 μM (0.1% DMSO). […] CellTiter-Glo® Assay kit was purchased from Promega. SH-SY5Y human bone marrow neuroblastoma cell line was purchased from American Type Culture Collection (Manassas, VA) and licensed from Memorial Sloan-Kettering Cancer Center (New York, NY). SH-SY5Y cells were grown in DMEM/F12 medium supplemented with 10% FBS with 100 IU/ml penicillin and 100 μg/ml streptomycin. Cultures were maintained at 37° C. in a humidified atmosphere of 5% CO2/95% air. SH-SY5Y cells were seeded at 30,000 cells per well on 96-well plates. […] ATP levels were determined using a CellTiter-Glo Assay kit (Promega) according to the manufacturer's instructions. Luminescence for each sample well on the plate was measured using a Cytation 3 plate reader (BioTek, Winooski, VT). Activity was calculated relative to 0.1% DMSO treated control. The relative standard deviation of the result for the 0.1% DMSO treated control was <5%.

Row | Compound | Caspase 3/7 Activity, Percent of Control Activity [1] [%] | ATP Levels, % Control [2] [%]
1 | CC[C@H](C)[C@H](NC(=O)[C@H](CC(C)C)NC(=O)[C@H](CC(C)C)NC(=O)[C@@H](N)CCSC)C(=O)N[C@@H](CC(C)C)C(=O)N[C@H](C(=O)N[C@@H](CC(C)C)C(=O)N[C@H](C(=O)N[C@@H](CC(C)C)C(=O)N[C@H](C)C(=O)O)C(C)C)[C@@H](C)O [compound 3] (H-MLLILTLVL[dA]-OH; N-terminus and C-terminus assumed) | 90.9 | 104.8
2 | CC[C@H](C)[C@H](NC(=O)[C@H](CC(C)C)NC(=O)[C@H](C)NC(=O)[C@@H](N)CCSC)C(=O)N[C@@H](CC(C)C)C(=O)N[C@H](C(=O)N[C@@H](CC(C)C)C(=O)N[C@H](C(=O)N[C@@H](CC(C)C)C(=O)N[C@H](C)C(=O)O)C(C)C)[C@@H](C)O [compound 4] (H-MALILTLVL[dA]-OH; N-terminus and C-terminus assumed) | 96.4 | 102.2
3 | CC[C@H](C)[C@H](NC(=O)[C@H](CC(C)C)NC(=O)[C@H](C)NC(=O)[C@@H](N)CCSC)C(=O)N[C@@H](CC(=O)O)C(=O)N[C@H](C(=O)N[C@@H](CC(C)C)C(=O)N[C@H](C(=O)N[C@@H](CC(C)C)C(=O)N[C@H](C)C(=O)O)C(C)C)[C@@H](C)O [compound 5] (H-MALIDTLVL[dA]-OH; N-terminus and C-terminus assumed) | 76.2 | 97.1
4 | CC[C@H](C)[C@H](NC(=O)[C@@H](NC(=O)CNC(=O)[C@@H](C)NC(=O)[C@@H](N)CCSC)C(C)C)C(=O)N[C@@H](CCCNC(=N)N)C(=O)NCC(=O)N[C@H](C(=O)N[C@@H](CC(C)C)C(=O)N[C@H](C(=O)N[C@@H](CC(C)C)C(=O)O)C(C)C)C(C)C [compound 9] (H-M[dA]GVIRGVLVL-OH; N-terminus and C-terminus assumed) | 89.3 | 105.9
5 | CC[C@H](C)[C@H](NC(=O)[C@@H](NC(=O)CNC(=O)[C@@H](C)NC(=O)[C@@H](N)CCSC)C(C)C)C(=O)N[C@@H](CCCNC(=N)N)C(=O)N[C@@H](C)C(=O)N[C@H](C(=O)N[C@@H](CC(C)C)C(=O)N[C@H](C(=O)N[C@@H](CC(C)C)C(=O)O)C(C)C)C(C)C [compound 10] (H-M[dA]GVIRAVLVL-OH; N-terminus and C-terminus assumed) | 82.6 | 103.2
6 | CC[C@H](C)[C@H](NC(=O)[C@H](Cc1c[nH]c2ccccc12)NC(=O)[C@H](CCC(N)=O)NC(=O)[C@@H](N)CCCNC(=N)N)C(=O)N[C@@H](CC(C)C)C(=O)N[C@@H](Cc1c[nH]cn1)C(=O)N[C@@H](CC(N)=O)C(=O)N[C@H](C)C(=O)NCC(=O)N[C@@H](CCSC)C(=O)N[C@@H](CO)C(=O)N[C@@H](Cc1ccccc1)C(=O)N[C@@H](Cc1ccccc1)C(=O)N[C@@H](CS)C(=O)O [compound 14] (H-RQWILHN[dA]GMSFFC-OH; N-terminus and C-terminus assumed) | 107.4 | 98.4
7 | CSCC[C@H](NC(=O)CNC(=O)[C@@H](C)NC(=O)[C@H](CC(N)=O)NC(=O)[C@H](Cc1c[nH]cn1)NC(=O)[C@H](CC(C)C)NC(=O)[C@H](CCC(=O)O)NC(=O)[C@H](Cc1c[nH]c2ccccc12)NC(=O)[C@H](CCC(N)=O)NC(=O)[C@@H](N)CCCNC(=N)N)C(=O)N[C@@H](CO)C(=O)N[C@@H](C)C(=O)N[C@@H](Cc1ccccc1)C(=O)N[C@@H](CS)C(=O)O [compound 15] (H-RQWELHN[dA]GMSAFC-OH; N-terminus and C-terminus assumed) | 114.6 | 101.8
8 | CSCC[C@H](NC(=O)[C@H](CCCNC(=N)N)NC(=O)[C@H](CCCNC(=N)N)NC(=O)[C@@H](N)CCCNC(=N)N)C(=O)N[C@@H](Cc1ccccc1)C(=O)N[C@@H](CO)C(=O)N[C@@H](CS)C(=O)N[C@@H](Cc1ccc(O)cc1)C(=O)N[C@H](C)C(=O)N[C@@H](Cc1ccc(O)cc1)C(=O)O [compound 19] (H-RRRMFSCY[dA]Y-OH; N-terminus and C-terminus assumed) | 93.7 | 106.7
9 | CCCC[C@H](NC(=O)[C@H](CCCNC(=N)N)NC(=O)[C@H](CCCNC(=N)N)NC(=O)[C@@H](N)CCCNC(=N)N)C(=O)N[C@@H](Cc1ccccc1)C(=O)N[C@@H](CO)C(=O)N[C@@H](CS)C(=O)N[C@@H](Cc1ccc(O)cc1)C(=O)N[C@H](C)C(=O)N[C@@H](Cc1ccc(O)cc1)C(=O)O [compound 20] (H-RRR[Nle]FSCY[dA]Y-OH; N-terminus and C-terminus assumed) | 85.4 | 106.9
10 | CC[C@H](C)[C@H](NC(=O)[C@@H](NC(=O)[C@H](Cc1c[nH]cn1)NC(=O)[C@H](CCCNC(=N)N)NC(=O)[C@H](CC(=O)O)NC(=O)[C@H](Cc1ccc(O)cc1)NC(=O)[C@H](CC(C)C)NC(=O)[C@H](CC(C)C)NC(=O)[C@@H](NC(=O)[C@@H](N)Cc1c[nH]c2ccccc12)C(C)C)C(C)C)C(=O)NCC(=O)NCC(=O)N[C@@H](CO)C(=O)N[C@@H](CC(C)C)C(=O)N[C@@H](CS)C(=O)N[C@H](C(=O)N[C@H](C(=O)N[C@H](C(=O)N[C@@H](CCC(N)=O)C(=O)N[C@H](C(=O)N[C@@H](CCC(=O)O)C(=O)N[C@H](C)C(=O)N[C@@H](Cc1ccc(O)cc1)C(=O)O)C(C)C)C(C)C)C(C)C)C(C)C [compound 23] (H-WVLLYDRHVIGGSLCVVVQVE[dA]Y-OH; N-terminus and C-terminus assumed) | 104.3 | 105.9
11 | CC[C@H](C)[C@H](NC(=O)[C@@H](NC(=O)[C@H](Cc1c[nH]cn1)NC(=O)[C@H](CCCNC(=N)N)NC(=O)[C@H](CC(=O)O)NC(=O)[C@H](Cc1ccc(O)cc1)NC(=O)[C@H](CC(C)C)NC(=O)[C@H](CC(C)C)NC(=O)[C@@H](NC(=O)[C@@H](N)Cc1c[nH]c2ccccc12)C(C)C)C(C)C)C(=O)NCC(=O)NCC(=O)N[C@@H](CO)C(=O)N[C@@H](CC(C)C)C(=O)N[C@@H](CS)C(=O)N[C@H](C(=O)N[C@H](C(=O)N[C@H](C(=O)N[C@@H](CCC(N)=O)C(=O)N[C@H](C(=O)N[C@@H](CCC(=O)O)C(=O)N[C@H](C)C(=O)O)C(C)C)C(C)C)C(C)C)C(C)C [compound 24] (H-WVLLYDRHVIGGSLCVVVQVE[dA]-OH; N-terminus and C-terminus assumed) | 108.8 | 98.3
12 | CC[C@H](C)[C@H](NC(=O)[C@@H](NC(=O)[C@H](Cc1c[nH]cn1)NC(=O)[C@H](CCCNC(=N)N)NC(=O)[C@H](CC(=O)O)NC(=O)[C@H](Cc1ccc(O)cc1)NC(=O)[C@H](CC(C)C)NC(=O)[C@H](CC(C)C)NC(=O)[C@@H](NC(=O)[C@@H](N)Cc1c[nH]c2ccccc12)C(C)C)C(C)C)C(=O)NCC(=O)NCC(=O)N[C@@H](CO)C(=O)N[C@@H](CC(C)C)C(=O)N[C@@H](CS)C(=O)N[C@H](C(=O)N[C@@H](CCC(N)=O)C(=O)N[C@H](C(=O)N[C@@H](CCC(N)=O)C(=O)N[C@H](C(=O)N[C@@H](CCC(=O)O)C(=O)N[C@H](C)C(=O)O)C(C)C)C(C)C)C(C)C [compound 25] (H-WVLLYDRHVIGGSLCVQVQVE[dA]-OH; N-terminus and C-terminus assumed) | 108.8 | 106.9
13 | GWVLLYDRHVIGGSLCVVVQVEAY [compound 22] | 105.0 | 103.5
14 | MAGVIRGVLVL [compound 8] | 86.7 | 101.1
15 | MLLILTLVLL [compound 2] | 86.6 | 99.9
16 | MMAGVIRGVLVL [compound 7] | 84.6 | 103.9
17 | MRQWILHNGGMSFFC [compound 12] | 109.7 | 101.0
18 | MRRRMFSCYLY [compound 17] | 91.3 | 104.6
19 | RQWILHNGGMSFFC [compound 13] | 115.8 | 101.2
20 | RRRMFSCYLY [compound 18] | 95.7 | 108.6
